The nature of data set [1]: Hydrolysis in Caco-2 cell homogenate. It is filed as in vitro ADME, human. The conditions noted are these: for Half-lives, Caco-2 Cell Homogenate: pH 7.4 phosphate buffer, 37°C, mean ± SD, n = 3, NA = no significant degradation.
The conditions of data set [2]: mean ± SD; cited from earlier work.
The conditions of data set [3]: mean ± SD; cited from earlier work. The source holds these as a separate data set.
Data set [4] is described as follows: Stability in human liver microsomes. Particulars: for Half-lives, Human Liver Microsomes: mean ± SD, n = 3, NA = no significant degradation. Background: Liver microsomes are vesicles of endoplasmic reticulum, rich in cytochrome P450 enzymes.
For data set [5] the following is noted: pH 7.4 phosphate buffer, 37°C; mean ± SD; cited from earlier work.
A short description of data set [6]: Hydrolysis in human non-tumor liver tissue homogenate. The conditions noted are these: for Half-lives, Human non-Tumor Liver Tissue Homogenate: mean ± SD, n = 3, NA = no significant degradation. It is filed as in vitro ADME.
Data set [7] can be described thus: Hydrolysis in human tumor liver tissue homogenate. In kind it is in vitro ADME. The conditions noted are these: mean ± SD, n = 3; NA = no significant degradation.
Data set [8] in a line: Hydrolysis in human small intestinal. In kind it is in vitro ADME.
Data set [9] in a line: Hydrolysis in Capan-2 cell homogenate. It is filed as in vitro ADME, human.
The conditions of data set [10]: phosphate buffer.
Data set [11] can be described thus: Hydrolysis in human pancreas. It is filed as in vitro ADME. The conditions noted are these: human pancreas tissue homogenate.
Data set [12] is described as follows: Hydrolysis in AsPC-1 cell homogenate. In kind it is in vitro ADME. Particulars: human, pH 7.4.
For data set [13] the following is noted: reported by several groups; cited from earlier work.

This is an account of results in paper PMC3580045 (Journal of pharmacy & pharmaceutical sciences : a …, 2012).

Molecules are shown by their SMILES. Read-outs that look alike come from different tables or passages of the source. Marks after values point to notes of the source that are not given here.

Usually half-life stands for the time needed for the level to fall by half in the phase considered. High values mean slow loss, low ones fast loss.

On to `CC(C)C[C@H](N)C(=O)OC[C@H]1O[C@@H](n2cc(F)c(=O)[nH]c2=O)C[C@@H]1O` [5′-O-L-leucyl-floxuridine], for which the “Half-lives, Caco-2 Cell Homogenate” value in data set [1] is given as 3.3 ± 0.9 min. In [2], the “Half-lives, AsPC-1 Cell Homogenate” value is on record as 2.0 ± 0.1 ^a min. Also, the “Half-lives, Capan-2 Cell Homogenate” value in data set [3] is 4.7 ± 2.1 ^b min. The “Half-lives, Human Liver Microsomes” value in [4] came to 0.8 ± 0.1 min. For the same molecule, the “Half-lives, Buffer pH 7.4” value in data set [5] is 83.2 ± 1.7 ^b min. Also, in data set [6], the “Half-lives, Human non-Tumor Liver Tissue Homogenate” value is reported as under 0.2 min.

Turning to `N[C@@H](Cc1ccccc1)C(=O)OC[C@H]1O[C@@H](n2cc(F)c(=O)[nH]c2=O)C[C@@H]1O` [5′-O-L-phenylalanyl-floxuridine], the “Half-lives, Caco-2 Cell Homogenate” value in data set [1] is given as 12.2 ± 0.1 min. For the same molecule, in data set [2], the “Half-lives, AsPC-1 Cell Homogenate” value is listed as 11.8 ± 1.7 ^b min. Besides, the “Half-lives, Capan-2 Cell Homogenate” value in data set [3] is 3.0 ± 0.1 ^b min. The “Half-lives, Human Liver Microsomes” value in data set [4] is 1.3 ± 0.4 min. Besides, in [5], the “Half-lives, Buffer pH 7.4” value is listed as 187.0 ± 19.0 ^b min. In [6], the “Half-lives, Human non-Tumor Liver Tissue Homogenate” value was 3.2 ± 1.2 min.

As to `CC(C)[C@@H](N)C(=O)OC[C@H]1O[C@@H](n2cc(F)c(=O)[nH]c2=O)C[C@@H]1O` [5′-O-D-valyl-floxuridine], the “fold more stable than 5′-O-L-valyl-floxuridine” value in data set [1] (Caco-2 homogenate) is listed as 16.1 fold; in data set [8] (human intestinal tissue homogenate) it was 11.3 fold. Also, the “Half-lives, Caco-2 Cell Homogenate” value in [1] is 220.4 ± 64.0 min. The “Half-lives, AsPC-1 Cell Homogenate” value in [2] is on record as 290.9 ± 48.9 ^a min. The “Half-lives, Human Tumor Liver Tissue Homogenate” value in data set [7] is listed as 9.4 ± 0.5 ^∞ min. Further, in data set [9] (mean ± SD, n = 3, NA = no significant degradation), the “Half-lives, Capan-2 Cell Homogenate” value is 188.3 ± 12.1 min. Further, the “fold better stability than 5′-O-L-valyl-floxuridine” value in [4] (human liver microsomes) is 243 fold; in [6] (human liver tissue homogenates (non-tumor and tumor)) it was 3- to 10 fold. In data set [4], the “Half-lives, Human Liver Microsomes” value is reported as 705.9 ± 64.2 min. In data set [4] (microsomes vs liver tissue homogenates), the “fold more stable in human liver microsomes than in human liver tissue homogenates” value is given as “at least 37 fold”. In addition, the “Half-lives, Buffer pH 7.4” value in data set [5] is listed as 344.9 ± 10.2 ^a min. Also, the “Half-lives, Human non-Tumor Liver Tissue Homogenate” value in [6] worked out at 19.0 ± 0.2 min.

As for `CC[C@H](C)[C@H](N)C(=O)OC[C@H]1O[C@@H](n2cc(F)c(=O)[nH]c2=O)C[C@@H]1O` [5′-O-L-isoleucyl-floxuridine], the “Half-lives, Caco-2 Cell Homogenate” value in data set [1] worked out at 131.6 ± 48.4 min. Besides, the “Half-lives, AsPC-1 Cell Homogenate” value in data set [2] is 198.0 ± 70.2 ^b min. For the same molecule, the “Half-lives, Human Tumor Liver Tissue Homogenate” value in [7] was under 0.2 min ^∞. The “Half-lives, Capan-2 Cell Homogenate” value in [3] was 139.9 ± 15.3 ^b min. The “Half-lives, Human Liver Microsomes” value in [4] is on record as 19.4 ± 7.8 min. Also, the “Half-lives, Buffer pH 7.4” value in data set [5] is 323.5 ± 1.5 ^a min. The “Half-lives, Human non-Tumor Liver Tissue Homogenate” value in data set [6] came out at 5.2 ± 0.1 min.

On to `N[C@@H](Cc1ccccc1)C(=O)NCC(=O)OC[C@H]1O[C@@H](n2cc(F)c(=O)[nH]c2=O)C[C@@H]1O` [5′-O-L-phenylalanyl-L-glycyl-floxuridine], for which, in data set [1], the “Half-lives, Caco-2 Cell Homogenate” value was 2.9 ± 0.5 min. Besides, the “Half-lives, AsPC-1 Cell Homogenate” value in data set [2] is recorded as 10.2 ± 0.3 ^b min. Besides, in data set [3], the “Half-lives, Capan-2 Cell Homogenate” value was 4.3 ± 0.9 ^b min. The “Half-lives, Human Liver Microsomes” value in [4] stood at 15.9 ± 1.9 min. Besides, the “Half-lives, Buffer pH 7.4” value in [5] was 132.1 ± 10.2 ^b min. Also, the “Half-lives, Human non-Tumor Liver Tissue Homogenate” value in [6] is on record as 3.2 ± 0.3 min.

Take `CC(C)[C@H](N)C(=O)OC[C@H]1O[C@@H](n2cc(F)c(=O)[nH]c2=O)C[C@@H]1O` [5′-O-L-valyl-floxuridine]: the “Half-lives, Caco-2 Cell Homogenate” value in data set [1] was found to be 13.7 ± 2.0 min. The “Half-lives, AsPC-1 Cell Homogenate” value in [2] is given as 18.7 ± 6.7 ^b min. The “Half-lives, Human Tumor Liver Tissue Homogenate” value in data set [7] is 3.5 ± 0.2 ^∞ min. The “Half-lives, Capan-2 Cell Homogenate” value in data set [3] is recorded as 5.2 ± 2.4 ^b min. Also, the “Half-lives, Human Liver Microsomes” value in [4] amounted to 2.9 ± 0.1 min. Moreover, in data set [5], the “Half-lives, Buffer pH 7.4” value was 304.0 ± 33.3 ^b min. Further, the “Half-lives, Human non-Tumor Liver Tissue Homogenate” value in [6] is listed as 2.0 ± 0.3 min.

Turning to `N[C@@H](Cc1ccccc1)C(=O)N[C@@H](Cc1ccc(O)cc1)C(=O)OC[C@H]1O[C@@H](n2cc(F)c(=O)[nH]c2=O)C[C@@H]1O` [5′-O-L-phenylalanyl-L-tyrosyl-floxuridine], the “Half-lives, Caco-2 Cell Homogenate” value in data set [1] is 115.2 ± 54.2 min. Besides, the “Half-lives, AsPC-1 Cell Homogenate” value in data set [2] is 59.7 ± 1.4 ^b min. Also, the “Half-lives, Human Tumor Liver Tissue Homogenate” value in data set [7] was 241.4 ± 5.1 min. Moreover, the “Half-lives, Capan-2 Cell Homogenate” value in [3] is recorded as 42.8 ± 0.0 ^b min. In addition, in data set [4], the “Half-lives, Human Liver Microsomes” value is reported as 253.0 ± 36.2 min. The “Half-lives, Buffer pH 7.4” value in [5] is recorded as 233.9 ± 6.6 ^b min. Also, the “Half-lives, Human non-Tumor Liver Tissue Homogenate” value in data set [6] turned out to be 358.3 ± 20.3 min.

Regarding `O=C(O[C@H]1C[C@H](n2cc(F)c(=O)[nH]c2=O)O[C@@H]1CO)[C@@H]1CCCN1` [Floxuridine-3′-L-proline], the “stability (in words)” value in data set [10], in data set [1] (Caco-2 cell homogenate) and in [8] (human small bowel tissue homogenate) was “stable” each time. In addition, the “degradation (in words)” value in data set [4] (human liver microsomes, over 2 hr) is recorded as “no significant degradation”; in data set [6] (human liver tissue homogenate, over 2 hr) it was “no significant degradation”.

Turning to `O=c1[nH]c(=O)n([C@H]2C[C@H](O)[C@@H](CO)O2)cc1F` [Floxuridine, 5-fluoro-2′-deoxyuridine, reference compound], the half-life in [1] (human, Caco-2, pH 7.4) was 14.3 ± 7 min; in [11] (human, non-tumor, pH 7.4) it was 209 ± 19.4 min; in [12] it was 6.4 ± 3.2 min; in data set [8] (human, pH 7.4) it was 14 ± 4 min; in [9] (human, Capan-2 cell homogenate, pH 7.4), 17.8 ± 5.8 min; in data set [4] (human, human liver microsomes) it was under 0.2 min. The molecule further registered a half-life in data set [6] (human, human non-tumor liver tissue homogenate, pH 7.4) of 5 ± 2.4 min. Moreover, the “stability (in words)” value in data set [11] is “good stability”. For the same molecule, the “fold higher potency than 5-FU” value in data set [13] is on record as 10- to 100 fold.

In the case of `CC(C)[C@H](N)C(=O)N[C@@H](Cc1ccccc1)C(=O)OC[C@H]1O[C@@H](n2cc(F)c(=O)[nH]c2=O)C[C@@H]1O` [5′-O-L-valyl-L-phenylalanyl-floxuridine], the “Half-lives, Caco-2 Cell Homogenate” value in [1] was found to be 57.6 ± 9.3 min. Further, the “Half-lives, AsPC-1 Cell Homogenate” value in data set [2] is on record as 51.6 ± 4.2 ^b min. Besides, in data set [7], the “Half-lives, Human Tumor Liver Tissue Homogenate” value was under 0.2 min ^* ^∞. Further, the “Half-lives, Capan-2 Cell Homogenate” value in data set [3] is on record as 56.2 ± 12.8 ^b min. The “Half-lives, Human Liver Microsomes” value in [4] is listed as 24.7 ± 2.4 min. The “Half-lives, Buffer pH 7.4” value in data set [5] is 104.7 ± 7.0 ^b min. In addition, the “Half-lives, Human non-Tumor Liver Tissue Homogenate” value in data set [6] amounted to 2.2 ± 0.0 min.
